These results are taken from ChEMBL document CHEMBL3864155, “Dihydrostilbenes and diarylpropanes: Synthesis and in vitro pharmacological evaluation as potent nitric oxide production inhibition agents” (Bioorg Med Chem Lett, 2016).

Molecules are shown by their SMILES.

Series [1] is described as follows: Cytotoxicity against mouse RAW264.7 cells assessed as decrease in cell proliferation rate after 24 hrs by MTS assay. The class given is toxicity. (Tetrazolium dyes change colour on reduction, which living cells bring about.)
The nature of series [2]: Antiinflammatory activity in mouse RAW264.7 cells assessed as inhibition of LPS-induced nitric oxide production at 50 to 100 uM after 18 hrs by Griess assay relative to control. The class given is functional. (In general: Griess reagent forms a coloured azo dye with nitrite.)
Series [3] in a line: Cytotoxicity against mouse RAW264.7 cells assessed as cell proliferation rate at 10 uM after 24 hrs by MTS assay relative to control. The class given is toxicity. Conditions: read-out: Activity.
Series [4] is described as follows: Antiinflammatory activity in mouse RAW264.7 cells assessed as inhibition of LPS-induced nitric oxide production at 10 uM after 18 hrs by Griess assay relative to control. As to conditions: RAW264.7, 18 h. The format is functional.
The nature of series [5]: Cytotoxicity against mouse RAW264.7 cells assessed as cell proliferation rate at 50 uM after 24 hrs by MTS assay relative to control. The class given is toxicity. Conditions: read-out: Activity.
For series [6], the system named is RAW264.7. The experiment in a line: Effect on LPS-induced iNOS expression in mouse RAW264.7 cells at 10 uM after 18 hrs by Western blot method relative to LPS. The format is functional. (A western blot detects proteins with antibodies after separation by electrophoresis.)
Series [7] in a line: Cytotoxicity against mouse RAW264.7 cells assessed as cell proliferation rate at 1 uM after 24 hrs by MTS assay relative to control. The class given is toxicity. Conditions: read-out: Activity.
Series [8] deals with RAW264.7. The experiment in a line: Antiinflammatory activity in mouse RAW264.7 cells assessed as inhibition of LPS-induced nitric oxide production at 1 to 10 uM after 18 hrs by Griess assay. The class given is functional, cell-based.
The nature of series [9]: Antiinflammatory activity in mouse RAW264.7 cells assessed as inhibition of LPS-induced nitric oxide production at 1 uM after 18 hrs by Griess assay relative to control. As to conditions: RAW264.7, 18 h. The class given is functional.
Series [10] can be described thus: Cytotoxicity against mouse RAW264.7 cells assessed as cell proliferation rate at 100 uM after 24 hrs by MTS assay relative to control. The format is toxicity. Conditions: read-out: Activity.

For `Oc1cc(O)cc(CCc2ccc3c(c2)OCO3)c1`, the concentration for half-maximal inhibition (IC50) (in general, the point on the concentration scale where inhibition reaches its midpoint) at 24 h in series [1] came to 14.5 µM. In addition, the “inhibition (INH)” value in series [2] was above 80%. Moreover, in series [3], the viability at 24 h, 10 µM was determined as 90.8%. Besides, the inhibition (in general, the change of the read-out against control, counted positive when it falls) at 10 µM in series [4] turned out to be 28.3%. Besides, the viability at 24 h, 50 µM in [5] was determined as 82.7%. In [6], the “fold change (FC)” value is 0.93. Besides, the viability at 24 h, 1 µM in [7] was 96.8%. The inhibition entry in series [8] was “Dose-dependent effect”. Moreover, the inhibition at 1 µM in series [9] came to 17%. Further, the viability at 24 h, 100 µM in series [10] was determined as 78.9%.

In the case of `COc1cc(CCCc2cc(OC)c(OC)cc2O)ccc1O`, the IC50 at 24 h in series [1] was found to be 4.46 µM. The “inhibition (INH)” value in series [2] is reported as above 80%. Moreover, the viability at 24 h, 10 µM in series [3] came out at 113%. The inhibition at 10 µM in series [4] was 56.5%. In [5], the viability at 24 h, 50 µM was 88.4%. Moreover, the “fold change (FC)” value in [6] amounted to 0.73. Besides, the viability at 24 h, 1 µM in series [7] amounted to 135%. The inhibition result in series [8] was “Dose-dependent effect”. The inhibition at 1 µM in series [9] was 38.2%. For the same compound, the viability at 24 h, 100 µM in series [10] was 80.9%.

On to `COc1ccc(CCCc2ccc(O)c(O)c2OC)cc1OC`, for which the IC50 at 24 h in series [1] stood at 1.84 µM. Further, the “inhibition (INH)” value in series [2] was above 80%. In addition, the viability at 24 h, 10 µM in series [3] worked out at 103%. Also, the inhibition at 10 µM in [4] is 100%. The viability at 24 h, 50 µM in series [5] is 86.3%. Besides, the “fold change (FC)” value in series [6] is on record as 0.39. Further, in series [7], the viability at 24 h, 1 µM came out at 118%. Further, the inhibition result in series [8] is “Dose-dependent effect”. Moreover, the inhibition at 1 µM in series [9] was found to be 36.9%. Further, the viability at 24 h, 100 µM in series [10] was 61.9%.

As for `Oc1cc(O)cc(CCCc2ccc3c(c2)OCO3)c1`, the IC50 at 24 h in series [1] worked out at 1.3 µM. Further, the “inhibition (INH)” value in [2] is above 80%. For the same compound, the viability at 24 h, 10 µM in [3] came out at 102%. In addition, the inhibition at 10 µM in series [4] came out at 53.6%. Also, the viability at 24 h, 50 µM in series [5] was 86.7%. In addition, in series [6], the “fold change (FC)” value was found to be 0.74. Also, the viability at 24 h, 1 µM in series [7] was determined as 116%. Also, the inhibition result in series [8] was “Dose-dependent effect”. Besides, the inhibition at 1 µM in [9] stood at 40.8%. In addition, the viability at 24 h, 100 µM in series [10] is 70.4%.

With `COc1ccc(CCc2ccc(O)c(O)c2O)cc1OC`, the IC50 at 24 h in series [1] was 6.02 µM. Also, the “inhibition (INH)” value in [2] is reported as above 80%. Besides, the viability at 24 h, 10 µM in [3] was 114%. Besides, the inhibition at 10 µM in series [4] was 47%. For the same compound, the viability at 24 h, 50 µM in series [5] was 128%. The “fold change (FC)” value in series [6] amounted to 0.92. In addition, the viability at 24 h, 1 µM in series [7] came out at 114%. Also, the inhibition entry in series [8] was “Dose-dependent effect”. Moreover, the inhibition at 1 µM in series [9] came to 42.7%. In addition, the viability at 24 h, 100 µM in series [10] is 133%.

With `COc1cc(CCc2cc(OC)c(OC)cc2O)ccc1O`, in series [1], the IC50 at 24 h is 13.8 µM. The “inhibition (INH)” value in [2] is above 80%. In addition, in [3], the viability at 24 h, 10 µM turned out to be 124%. The inhibition at 10 µM in series [4] was determined as 29.5%. For the same compound, in series [5], the viability at 24 h, 50 µM came out at 128%. The “fold change (FC)” value in series [6] is on record as 1.12. The viability at 24 h, 1 µM in series [7] was 120%. Moreover, the inhibition at 1 µM in series [9] worked out at 35.2%. The viability at 24 h, 100 µM in series [10] came to 133%.

Take `COc1cc(CCc2cc(OC)c(O)c(OC)c2)ccc1O` [MOSCATILIN]: the IC50 at 24 h in series [1] was determined as 4.4 µM. In addition, the “inhibition (INH)” value in series [2] is reported as above 80%. Moreover, the viability at 24 h, 10 µM in [3] was determined as 52.9%. Further, the inhibition at 10 µM in series [4] was determined as 78.4%. For the same compound, the viability at 24 h, 50 µM in series [5] was found to be 47%. In series [6], the “fold change (FC)” value is given as 0.93. The viability at 24 h, 1 µM in [7] stood at 143%. The inhibition entry in [8] was “Dose-dependent effect”. Besides, the inhibition at 1 µM in series [9] came to 7.4%. Besides, the viability at 24 h, 100 µM in series [10] worked out at 59.6%.

On to `COc1ccc(CCc2ccc(O)c(O)c2OC)cc1OC`, for which the IC50 at 24 h in series [1] was found to be 2.98 µM. Also, the “inhibition (INH)” value in series [2] is above 80%. For the same compound, the viability at 24 h, 10 µM in series [3] came out at 99.9%. For the same compound, in [4], the inhibition at 10 µM was determined as 75.5%. Further, the viability at 24 h, 50 µM in series [5] was 94.8%. Further, the “fold change (FC)” value in [6] is on record as 0.65. Besides, in series [7], the viability at 24 h, 1 µM was determined as 106%. In addition, in series [8], the inhibition entry was “Dose-dependent effect”. Besides, the inhibition at 1 µM in series [9] came out at 24.3%. In addition, in series [10], the viability at 24 h, 100 µM stood at 81.9%.

As to `COc1ccc(CCCc2ccc(O)c(O)c2O)cc1OC`, the IC50 at 24 h in series [1] came out at 10.7 µM. The “inhibition (INH)” value in series [2] is listed as above 80%. Further, the viability at 24 h, 10 µM in series [3] came out at 130%. Besides, the inhibition at 10 µM in series [4] came out at 28.6%. In addition, the viability at 24 h, 50 µM in [5] was found to be 86.4%. The “fold change (FC)” value in [6] is reported as 0.71. For the same compound, the viability at 24 h, 1 µM in series [7] was 110%. Also, the inhibition at 1 µM in series [9] is 29.6%. The viability at 24 h, 100 µM in series [10] is 73.2%.

Regarding `CNC(=N)NCCC[C@H](N)C(=O)O` [TILARGININE], the IC50 at 24 h in series [1] was 2.73 µM. Also, in series [3], the viability at 24 h, 10 µM turned out to be 100%. For the same compound, the inhibition at 10 µM in [4] was 90.1%. For the same compound, the viability at 24 h, 50 µM in [5] was determined as 113%. In addition, the “fold change (FC)” value in series [6] is recorded as 0.92 - 1.02. Besides, the viability at 24 h, 1 µM in [7] came out at 100%. Besides, the inhibition at 1 µM in series [9] is 15%. Besides, the viability at 24 h, 100 µM in series [10] is 97.2%.

Consider `COc1cc(CCCc2cc(OC)c(O)c(OC)c2)ccc1O`, for which the IC50 at 24 h in series [1] came out at 16.4 µM. The “inhibition (INH)” value in series [2] is recorded as above 80%. Also, the viability at 24 h, 10 µM in [3] is 98.7%. For the same compound, in series [4], the inhibition at 10 µM was determined as 21.8%. The viability at 24 h, 50 µM in [5] was 88.7%. Moreover, the “fold change (FC)” value in series [6] is recorded as 0.81. Further, the viability at 24 h, 1 µM in [7] is 98.4%. In addition, the inhibition at 1 µM in series [9] was 27.2%. Moreover, in series [10], the viability at 24 h, 100 µM turned out to be 82%.
